Key:
hBChE [1] = molecular target: T1, hBChE (Homo sapiens, UniProt P06276); assay: ChE IC50 determination, method of Ellman, hBChE; type: biochemical
Experimental: (§1) The inhibitory potencies of the compounds against the ChEs were determined using the method of Ellman following the procedure described previously. Briefly, compound stock solutions in DMSO were incubated with Ellman’s reagent and ChEs (final concentrations: 370 μmol/L Ellman’s reagent, approximately 1 nmol/L or 50 pmol/L hBChE or hAChE, respectively) in 0.1 mol/L sodium phosphate pH 8.0 for 5 min at 20 °C. For time-dependency measurements, the pre-incubation time was varied (1, 5, 15, 30 or 60 min). The reactions were started by the addition of the substrate (final concentration, 500 μmol/L butyrylthiocholine iodide or acetylthiocholine iodide for hBChE and hAChE, respectively). The final content of DMSO was always 1%. The increase in absorbance at 412 nm was monitored for 2 min using a 96-well microplate reader (Synergy HT, BioTek Instruments, VT, USA). The initial velocities in the presence (vi) and absence (v0) of the test compounds were calculated. The inhibitory potencies were expressed as the residual activities, according to Eq. (1):(1) RA = vi / v0
(§2) For IC50 determinations, at least seven different concentrations for each compound were used. The IC50 values were obtained by plotting the residual ChE activities against the applied inhibitor concentrations, with the experimental data fitted to a four-parameter logistic function (GraphPad Prism 9.4). Tacrine and donepezil were used as positive controls.

[2] = set-up: method as in PMID 1975199, PMID 16389294; details: in humans; cited from earlier work
hAChE = hAChE (Homo sapiens, UniProt P22303); assay: ChE IC50 determination, method of Ellman, hAChE; type: biochemical; details: for remaining activity at 100 µM: residual activity at 100 μmol/L, after 5 min preincubation, read-out: hAChE RA±SD (residual activity)
Experimental: as §1, §2

α2 adrenoreceptors = tested on: α2 adrenoreceptors; set-up: method as in PMID 1975199, PMID 16389294; details: α2 adrenergic antagonist; cited from earlier work
hBChE [3] = molecular target: T1, hBChE; assay: hBChE binding kinetics: carbamoylation and decarbamoylation, initial velocity measurements; type: biochemical
Experimental: The progress curves for the time courses of product formation for the hydrolysis of butyrylthiocholine iodide were measured on an Agilent Cary 3500 UV–VIS spectrophotometer with Compact Peltier (thermostated at 25 °C) at 412 nm using a 0.6 mL cuvette (optical path–0.5 cm). 30 mmol/L Tris buffer pH 7.0 with 1 mg/mL BSA and 0.02% NaN3 was used and all dilutions were done in glass vessels (note: dilute hBChE solutions rapidly lose activity, presumably due to adsorption to plastic, preventing meaningful decarbamoylation assays. In our hands, under the above conditions only, the diluted and stock solutions of hBChE were stable for at least a month at room temperature.). Total volume in the cuvette was always 500 μL, and enzyme solutions that gave upon dilution v0 = (dA/dt) ≈ 0.5 (for carbamoylation) and ≈ 1 for (for decarbamoylation) were used. For carbamoylation experiments, 0.5–1 μL of enzyme stock, 5 μL of compound solution, and 484 μL of buffer were preincubated for the specified time, then 10 μL of the mixture of 25 mmol/L Ellman’s reagent (DTNB) and 20 mmol/L butyrylthiocholine (large excess to prevent substrate depletion) were added, quickly mixed, and measurement started. […] The data analysis followed the literature[63]^,[98].

[4] = tested on: ICR mice icv-injected with Aβ1–42; assay: Morris water maze, mice model with icv-injection of Aβ1–42; type: in vivo; details: 10 mg/kg, ip; compared with compound 8
Experimental: Mice model with icv-injection of Aβ1–42 The experiments were performed using ICR male mice (8–10 weeks old, weight 18–20 g), which were purchased from Shanghai Bikai Animal Breeding Factory (Shanghai, China). Animals were housed in cages (6 mice per cage) at a constant temperature of 25±2 °C, humidity of 55%±10% and a light/dark (12:12) cycle. The mice had unlimited access to food and water prior to the experiment. Specified conditions for the maintenance of mice were ensured throughout the experiments, including tree bedding (Yizheng Anlimao Biotechnology Co., Ltd., China) and lab feed (Zimao, China). For behavioural tests, mice were selected randomly, each group consisted of 6 mice. The experiments were performed between 9 am and 3 pm.
According to the literature procedure, recombinant human hexafluoroisopropanol-pretreated Aβ1–42 from Merck Millipore (Darmstadt, Germany) was dissolved in 1% DMSO, diluted with saline to the final concentration of 2 mg/mL, and incubated for 72 h to form oligomers. […]
Behavioural assays The Morris water maze was placed in a lighted room at 25 °C, and it was divided into four equal quadrants. […] The time spent searching for the missing platform was recorded by Xeye Aba image processing system (Beijing Zhongshi Dichuang Technology Development Co., Ltd.) and analysed by GraphPad Prism 5.

Chain of hAChE (P22303 32-614): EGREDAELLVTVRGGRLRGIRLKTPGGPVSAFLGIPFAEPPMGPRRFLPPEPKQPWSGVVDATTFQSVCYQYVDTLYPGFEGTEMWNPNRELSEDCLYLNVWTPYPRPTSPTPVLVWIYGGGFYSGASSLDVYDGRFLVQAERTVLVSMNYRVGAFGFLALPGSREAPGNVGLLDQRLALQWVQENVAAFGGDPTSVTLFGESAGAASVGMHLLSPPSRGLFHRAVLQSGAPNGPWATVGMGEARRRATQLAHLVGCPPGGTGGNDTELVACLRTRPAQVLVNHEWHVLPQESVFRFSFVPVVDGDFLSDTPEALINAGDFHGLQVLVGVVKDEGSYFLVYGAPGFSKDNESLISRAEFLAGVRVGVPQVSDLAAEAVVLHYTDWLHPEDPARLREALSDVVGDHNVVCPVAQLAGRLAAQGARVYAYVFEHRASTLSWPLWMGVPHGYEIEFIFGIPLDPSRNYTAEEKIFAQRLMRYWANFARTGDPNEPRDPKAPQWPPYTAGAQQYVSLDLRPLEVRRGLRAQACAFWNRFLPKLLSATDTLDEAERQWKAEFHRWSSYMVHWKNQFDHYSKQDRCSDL
T1 sequence (P06276 29-602): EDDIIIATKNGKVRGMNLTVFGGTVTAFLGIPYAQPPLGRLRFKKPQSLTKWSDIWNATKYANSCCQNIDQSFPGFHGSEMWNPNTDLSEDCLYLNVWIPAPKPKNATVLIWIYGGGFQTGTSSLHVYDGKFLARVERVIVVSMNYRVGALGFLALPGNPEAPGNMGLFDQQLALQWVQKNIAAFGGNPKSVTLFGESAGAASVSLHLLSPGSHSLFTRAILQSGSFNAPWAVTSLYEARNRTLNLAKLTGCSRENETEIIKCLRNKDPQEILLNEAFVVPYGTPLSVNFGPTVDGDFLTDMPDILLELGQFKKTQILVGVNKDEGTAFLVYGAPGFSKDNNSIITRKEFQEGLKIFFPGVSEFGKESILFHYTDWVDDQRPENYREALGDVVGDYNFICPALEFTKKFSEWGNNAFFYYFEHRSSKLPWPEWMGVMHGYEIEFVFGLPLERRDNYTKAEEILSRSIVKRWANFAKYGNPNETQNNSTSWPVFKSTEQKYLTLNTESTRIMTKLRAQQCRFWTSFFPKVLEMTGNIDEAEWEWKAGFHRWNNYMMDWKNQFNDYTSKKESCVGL

Row | Structure (SMILES) | ChE inhibition of the leaving groups (hBChE [1]; ChEs (hBChE and hAChE)) | remaining activity at 100 µM (hBChE [1]; residual activity at 100 μmol/L, after 5 min preincubation, read-out: hBChE RA±SD (residual activity)) | half-life [2] | remaining activity at 100 µM (hAChE) | potency compared to idazoxan 2 (α2 adrenoreceptors) | IC50 (hBChE [1]; after 5 min preincubation, read-out: hBChE IC50±SD) | hBChE time-dependency observed: Yes/No (hBChE [1]; pre-incubation time varied) | Ki (hBChE [3]) | kcarb, carbamoylation (hBChE [3]; 25 °C) | kdecarb, decarbamoylation (hBChE [3]; 25 °C) | t1/2, decarbamoylation (hBChE [3]; 25 °C) | ΔG25°C‡, carbamoylation (hBChE [3]; 25 °C) | effectiveness in MWM test [4] | hAChE time-dependency observed: Yes/No (hAChE; pre-incubation time varied)
1 | CCC1(c2cnc[nH]2)Cc2ccccc2C1 [Compound 5, 4-(2-ethylindan-2-yl)-1H-imidazole, reference compound] | ineffective | 82% | 1.7 to 2 h | 82% | approx. 100 fold | – | – | – | – | – | – | – | – | –
2 | CCN(C)C(=O)n1cnc(C2(CC)Cc3ccccc3C2)c1 [Compound 7, N-Ethyl-4-(2-ethylindan-2-yl)-N-methyl-1H-imidazole-1-carboxamide] | – | – | – | 52 ± 3% | – | 9.9 ± 0.9 nM | Yes | 73 ± 6 nM | 7.2±4.5 min^–1 | 0.92±0.14 ×10^–2 h^–1 | 75 ± 11 h | 18.7 ± 0.4 kcal/mol | less effective | Yes
